Experimental data from ChEMBL document CHEMBL1132855, “Modeling directed design and biological evaluation of quinazolinones as non-peptidic growth hormone secretagogues” (Bioorg Med Chem Lett, 2000).

Columns and labels:
[1] = biological target: Growth hormone secretagogue receptor type 1 (Homo sapiens, UniProt Q92847); test: Binding affinity for human growth hormone GH secretagogue (hGHsr) receptor
[2] = organism: Rattus norvegicus; test: The effective concentration against rat pituitary cell GH release assay; type: functional; settings: Pituitary gland cell

Chain of Growth hormone secretagogue receptor type 1 (Q92847 whole entry): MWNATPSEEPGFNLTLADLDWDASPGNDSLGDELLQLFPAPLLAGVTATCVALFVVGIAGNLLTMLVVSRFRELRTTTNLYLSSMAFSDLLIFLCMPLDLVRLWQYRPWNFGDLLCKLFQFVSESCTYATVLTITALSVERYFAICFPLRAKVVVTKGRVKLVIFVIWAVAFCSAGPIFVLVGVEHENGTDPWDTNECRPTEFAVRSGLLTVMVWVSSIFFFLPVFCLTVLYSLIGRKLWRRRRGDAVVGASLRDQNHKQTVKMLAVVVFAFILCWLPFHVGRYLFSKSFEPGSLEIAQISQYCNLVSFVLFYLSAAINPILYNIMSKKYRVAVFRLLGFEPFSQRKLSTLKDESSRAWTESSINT

Structure (SMILES)	IC50 [1] [nM]	IC50 [2] [nM]
NCCCCCCNC(=O)Cn1c(CCc2ccccc2)nc2ccc(Br)cc2c1=O	67	
COC(=O)C(CCCCN)NC(=O)Cn1c(-c2ccc3ccccc3c2)nc2ccc(Cl)cc2c1=O (stereo unspecified)	3500	
NCCCCCNC(=O)Cn1c(CCc2ccccc2)nc2ccc(Br)cc2c1=O	340	
NCCCCCCNC(=O)Cn1c(CCc2ccccc2)nc2ccc(-c3ccccc3)cc2c1=O	16	630
CN1N=C2CCN(C(=O)[C@@H](COCc3ccccc3)NC(=O)C(C)(C)N)C[C@@]2(Cc2ccccc2)C1=O [CAPROMORELIN]	3000	

Next, values leading:

IC50 [1] [nM]	IC50 [2] [nM]	Structure (SMILES)
1400		NCCCCCNC(=O)Cn1c(-c2ccc3ccccc3c2)nc2ccc(Br)cc2c1=O
48		NCCCCCNC(=O)Cn1c(CCc2ccccc2)nc2ccc(-c3ccccc3)cc2c1=O
960		NCCCCCCNC(=O)Cn1c(-c2ccc3ccccc3c2)nc2ccc(Br)cc2c1=O
340		NCCCCCNC(=O)Cn1c(-c2ccc3ccccc3c2)nc2ccc(-c3ccccc3)cc2c1=O
200		NCCCCCCNC(=O)Cn1c(-c2ccc3ccccc3c2)nc2ccc(-c3ccccc3)cc2c1=O
